# Experimental data published in patent US10092530B2, “Method for inhibiting melanogenesis and promoting collagen production and wound healing” (TCI Co., Ltd, priority 2015, dated 2018).
# Legend:
# Type in all cases: cell-based
# [1] = tested on: MMP-9 gene expression; assay: MMP-9 gene expression by RT-PCR in human dermal fibroblasts; settings: 1X-24 group: 8.75 ng/mL, 24 hours
# Procedure: (§1) Human dermal fibroblasts (CCD-966SK cells, former ATCC CRL-1881), a type of adherent skin cells, were cultured in minimum essential medium supplemented with 10% (v/v) fetal bovine serum (FBS), 0.37% (w/v) sodium bicarbonate, 0.1 mM non-essential amino acid solution (NEAA), 1 mM sodium pyruvate, 0.03% (w/v) […], 100 units/ml penicillin and 100 μg/ml streptomycin at 37° C. under humidified atmosphere (relative humidity of 80%) containing 5% CO2. During the culture, the medium was renewed every two days. When the cultured cells reached confluence and formed a monolayer, which was examined by an inverted microscope, a subculture was carried out.
# Therefore, the inventors of the present application studied the inhibitory effect of the compound of formula (I) on MMP-9 gene expression in EXAMPLE 2. […]
# [2] = tested on: human dermal fibroblasts; assay: Collagen secretion assay (Sircol) in human dermal fibroblasts; settings: for increase in collagen secretion compared with the CTL group: 24 hours
# [3] = tested on: MITF gene expression; assay: MITF gene expression by RT-PCR in human dermal fibroblasts; settings: 2X-48 group: 17.5 ng/mL, 48 hours
# Procedure: as §1
# Therefore, the inventors of the present application studied the inhibitory effect of the compound of formula (I) on MITF gene expression in EXAMPLE 3. […]
# [4] = tested on: mouse melanoma cell line B16F10; assay: Melanin quantification assay in mouse melanoma cell line B16F10; settings: for decreased melanin content compared with the CTL group: 48 hours, B16F10
# Procedure: Therefore, the inventors of the present application studied the inhibitory effect of the compound of formula (I) on MITF gene expression in EXAMPLE 3. The following five groups were compared in this example: • (1) Control group (CTL group): incubating a culture of human dermal fibroblasts for a predetermined time; • (2) One dose-24 hours group (1X-24 group): adding one dose of the compound of the present invention to a culture of human dermal fibroblasts and then examining the culture after an incubation of 24 hours, wherein the term “one dose” refers to 8.75 ng/mL of the compound of formula (I) in DMSO; • (3) One dose-48 hours group (1X-48 group): adding one dose of the compound of the present invention to a culture of human dermal fibroblasts and then examining the culture after an incubation of 48 hours; • (4) Double dose-24 hours group (2X-24 group): adding a double dose of the compound of the present invention to a culture of human dermal fibroblasts and then examining the culture after an incubation of 24 hours, wherein the term “double dose” refers to 17.5 ng/mL of the compound of formula (I); and • (5) Double dose-48 hours group (2X-48 group): adding a double dose of the compound of the present invention to a culture of human dermal fibroblasts and then examining the culture after an incubation of 48 hours.
# In addition, a melanin quantification assay was performed to examine the change of melanin content in mouse melanoma cell line B16F10 (ATCC CRL-6475) upon addition of the compound of the present invention. The treatment of the cells was the same as described above. […] Thus, it is concluded that the compound at a concentration between 8 ng/ml and 18 ng/ml causes a decrease of at least 20% in melanin formation in mouse melanoma cells.
# [5] = tested on: human dermal fibroblasts; assay: Wound repair/closure of an incised wound area in a culture of human dermal fibroblasts; settings: for percentage of wound repair/closure relative to the CTL group: 18 hours
# Procedure: as §1
# Due to the importance of wound healing, the inventors of the present application studied the promoting effect of the compound of formula (I) on wound healing of skin in EXAMPLE 4. The following four groups were compared in this example: • (1) Control group (CTL group): creating an incised wound area in a culture of human dermal fibroblasts and then incubating and examining the culture for 18 hours; • (2) One dose-18 hours group (1X-18 group): creating an incised wound area in a culture of human dermal fibroblasts and adding one dose of the compound of the present invention to the culture; and then examining changes in the wound area of human dermal fibroblasts after an incubation of 18 hours, wherein the term “one dose” refers to 8.75 ng/mL of the compound of formula (I) in DMSO; • (3) Double dose-18 hours group (2X-18 group): creating an incised wound area in a culture of human dermal fibroblasts and adding one dose of the compound of the present invention to the culture; and then examining changes in the wound area of human dermal fibroblasts after an incubation of 18 hours, wherein the term “double dose” refers to 17.5 ng/mL of the compound of formula (I); and • (4) Fourfold dose-18 hours group (4X-18 group): creating an incised wound area in a culture of human dermal fibroblasts and adding one dose of the compound of the present invention to the culture; and then examining changes in the wound area of human dermal fibroblasts after an incubation of 18 hours, wherein the term “fourfold dose” refers to 35 ng/mL of the compound of formula (I).
# According to FIG. 8, a constant number of fibrocytes (about 1-2×10^5 cells) were produced in each of the CTL, 1X-18, 2X-18, and 4X-18 groups to repair and close the wound at 18 hours after wounding.
# In addition, a percentage of wound repair/closure in the wound area of human dermal fibroblasts was determined for the above four groups by analyzing the surface area change of the wound area in FIG. 8 using the software ImageJ. […]
structure (smiles),measurement,setting,value
C=C1CC[C@@H](C)C2C[C@@H](O)[C@@H](C(C)C(=O)O)CC12 (stereo partly drawn) [compound of formula (I)],inhibition of MMP-9 gene expression compared with the CTL group,[1],about 80%
same,increase in collagen secretion compared with the CTL group,[2]; 1X-24 group: 8.75 ng/mL,20%
same,increase in collagen secretion compared with the CTL group,[2]; 2X-24 group: 17.5 ng/mL,30%
same,increase in collagen secretion,[2]; concentration between 8 ng/ml and 18 ng/ml,at least 20%
same,inhibition of MITF gene expression compared with the CTL group,[3],about 50%
same,decreased melanin content compared with the CTL group,[4]; 1X-48 group: 8.75 ng/mL,20%
same,decreased melanin content compared with the CTL group,[4]; 2X-48 group: 17.5 ng/mL,40%
same,decrease in melanin formation,"[4]; concentration between 8 ng/ml and 18 ng/ml, mouse melanoma cells",at least 20%
same,degree of repair/closure in the wound area compared with the CTL group (micrographs),"[5]; 1X-18, 2X-18 and 4X-18 groups (8.75, 17.5, 35 ng/mL), 18 hours after wounding",significantly higher degree of repair/closure
same,percentage of wound repair/closure relative to the CTL group,[5]; 1X-18 group: 8.75 ng/mL,1.21 fold
same,percentage of wound repair/closure relative to the CTL group,[5]; 2X-18 group: 17.5 ng/mL,1.4 fold
same,percentage of wound repair/closure relative to the CTL group,[5]; 4X-18 group: 35 ng/mL,1.5 fold
